Literature values as cited in patent publication US6525095B1, “Propionate feed supplement” (New Mexico State University Technology Transfer Corporation, priority 2000, dated 2003).

Test system: swine
Details: for Average daily gain / Average feed intake per day / Total insulin: 200 ppb chromium in feed

## CCC(=O)[O-].CCC(=O)[O-].CCC(=O)[O-].[Cr+3] [chromium (III) propionate]
  Average daily gain: decrease
  Average feed intake per day: decrease
  Total insulin: remained unaffected
During the insulin challenge
  Glucose clearance: increased slightly more
  Glucose half-life: decreased

## chromium (III) tripicolinate
  Average daily gain: decrease
  Average feed intake per day: decrease
  Total insulin: remained unaffected
During the insulin challenge
  Glucose half-life: decreased
